Measured values published in US8173700B2, “Salts of substituted allophanates and their use in drugs” (Gruenenthal GmbH, priority 2005, dated 2012).

How the values were obtained:
[1] = target: T1, hVR1 (Homo sapiens, UniProt Q8NER1); experiment: Functional investigation at the vanilloid receptor (VR1), FLIPR Ca2+ influx assay, Method II, hVR1; type: cell-based; settings: for IC50: suppression of capsaicin-induced Ca2+ influx; for inhibition at 10 µM: test substance 10 μM, CHO K1 cells transfected with VR1, inhibition of Ca2+ influx after 100 nM capsaicin, compared to maximum inhibition with 10 μM capsazepin
T1 construct: expressed in transfected cells; host or cells: CHO K1 cells (ECACC)
From the text: (§1) The agonistic and/or antagonistic effects of the test substances on the vanilloid receptor (VR1) can be determined with the following assay. According to this assay the Ca^2+ influx through the channel is quantified by means of a Ca^2+-sensitive dye (Type Fluo-4, Molecular Probes, Europe BV, Leyden, The Netherlands) in the Fluorescent Imaging Plate Reader (FLIPR, Molecular Devices, Sunnyvale, USA).
(§2) Chinese hamster ovary cells (CHO K1-cells, European Collection of Cell Cultures (ECACC) Great Britain) are stably transfected with the VR1 gene. For functional studies, these cells are plated on poly-D-lysine-coated, black 96-well plates with clear bottom (BD Biosciences, Heidelberg, Germany) at a density of 25 000 cells/well. The cells are incubated overnight at 37° C. and 5% CO2 in a culture medium (Nutrient Mixture Ham's F12, 10 vol. % FCS (fetal calf serum), 18 μg/ml L-proline). On the next day the cells are incubated for 30 minutes at 37° C. with Fluo-4 (Fluo-4 2 μM, Pluronic F127 0.01 vol. %, Molecular Probes) in HBSS (Hank's buffered saline solution), (Gibco Invitrogen GmbH, Karlsruhe, Germany). Then the plates are washed 3 times with HBSS buffer and, after further incubation of 15 minutes at room temperature, they are used for Ca^2+ measurement in the FLIPR. The Ca^2+-dependent fluorescence is measured before and after adding the test substances (wavelength λex=^488 nm, λem=540 nm). Quantification is based on measurement of the maximum fluorescence intensity (FC, fluorescence counts) over time.
(§3) The FLIPR protocol comprises 2 additions of the substance. First the test substances (10 μM) are pipetted onto the cells and the Ca^2+ influx is compared with the control (capsaicin 10 μM) (% activation relative to the Ca^2+ signal after adding 10 μM capsaicin). After incubation for 5 minutes, 100 nM capsaicin is applied and the influx of Ca^2+ is determined again.
(§4) Desensitizing agonists and antagonists led to suppression of Ca^2+ influx. The % inhibition is calculated compared to the maximum inhibition attainable with 10 μM capsazepin.

[2] = target: T2, rVR1 (Rattus norvegicus, UniProt O35433); experiment: Functional investigation at the vanilloid receptor (VR1), FLIPR Ca2+ influx assay, Method II, rVR1; type: cell-based; settings: for IC50: suppression of capsaicin-induced Ca2+ influx; for rVR1 10 μM Stimulation / inhibition at 10 µM: test substance 10 μM; for rVR1 10 μM Stimulation: % activation relative to the Ca2+ signal after adding 10 μM capsaicin; for inhibition at 10 µM: inhibition of Ca2+ influx after 100 nM capsaicin, compared to maximum inhibition with 10 μM capsazepin
T2 construct: expressed in transfected cells; host or cells: CHO K1 cells (ECACC)
From the text: as §1, §2, §3, §4

T2 sequence (O35433 whole entry): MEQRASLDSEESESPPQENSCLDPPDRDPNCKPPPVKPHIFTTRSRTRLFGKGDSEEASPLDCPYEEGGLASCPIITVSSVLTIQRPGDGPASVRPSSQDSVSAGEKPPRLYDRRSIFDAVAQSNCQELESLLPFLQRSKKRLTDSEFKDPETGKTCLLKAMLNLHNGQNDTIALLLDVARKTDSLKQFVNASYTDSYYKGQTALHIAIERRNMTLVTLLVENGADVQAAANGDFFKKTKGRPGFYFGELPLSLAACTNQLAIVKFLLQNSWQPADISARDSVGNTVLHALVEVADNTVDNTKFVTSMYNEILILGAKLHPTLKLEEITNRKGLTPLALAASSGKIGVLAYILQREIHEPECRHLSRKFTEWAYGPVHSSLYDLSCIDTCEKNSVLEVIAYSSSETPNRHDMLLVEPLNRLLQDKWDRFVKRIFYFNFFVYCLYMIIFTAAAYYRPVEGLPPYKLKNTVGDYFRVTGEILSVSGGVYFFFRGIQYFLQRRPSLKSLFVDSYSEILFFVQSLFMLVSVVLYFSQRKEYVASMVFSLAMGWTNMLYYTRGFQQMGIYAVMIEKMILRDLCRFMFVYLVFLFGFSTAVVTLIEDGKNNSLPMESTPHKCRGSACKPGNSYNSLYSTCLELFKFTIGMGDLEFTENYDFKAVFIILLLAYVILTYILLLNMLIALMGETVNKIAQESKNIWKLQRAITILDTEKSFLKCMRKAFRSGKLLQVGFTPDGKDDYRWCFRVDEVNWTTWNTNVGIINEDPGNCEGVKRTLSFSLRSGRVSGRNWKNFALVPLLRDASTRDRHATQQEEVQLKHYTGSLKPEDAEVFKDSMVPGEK
T1 sequence (Q8NER1 whole entry): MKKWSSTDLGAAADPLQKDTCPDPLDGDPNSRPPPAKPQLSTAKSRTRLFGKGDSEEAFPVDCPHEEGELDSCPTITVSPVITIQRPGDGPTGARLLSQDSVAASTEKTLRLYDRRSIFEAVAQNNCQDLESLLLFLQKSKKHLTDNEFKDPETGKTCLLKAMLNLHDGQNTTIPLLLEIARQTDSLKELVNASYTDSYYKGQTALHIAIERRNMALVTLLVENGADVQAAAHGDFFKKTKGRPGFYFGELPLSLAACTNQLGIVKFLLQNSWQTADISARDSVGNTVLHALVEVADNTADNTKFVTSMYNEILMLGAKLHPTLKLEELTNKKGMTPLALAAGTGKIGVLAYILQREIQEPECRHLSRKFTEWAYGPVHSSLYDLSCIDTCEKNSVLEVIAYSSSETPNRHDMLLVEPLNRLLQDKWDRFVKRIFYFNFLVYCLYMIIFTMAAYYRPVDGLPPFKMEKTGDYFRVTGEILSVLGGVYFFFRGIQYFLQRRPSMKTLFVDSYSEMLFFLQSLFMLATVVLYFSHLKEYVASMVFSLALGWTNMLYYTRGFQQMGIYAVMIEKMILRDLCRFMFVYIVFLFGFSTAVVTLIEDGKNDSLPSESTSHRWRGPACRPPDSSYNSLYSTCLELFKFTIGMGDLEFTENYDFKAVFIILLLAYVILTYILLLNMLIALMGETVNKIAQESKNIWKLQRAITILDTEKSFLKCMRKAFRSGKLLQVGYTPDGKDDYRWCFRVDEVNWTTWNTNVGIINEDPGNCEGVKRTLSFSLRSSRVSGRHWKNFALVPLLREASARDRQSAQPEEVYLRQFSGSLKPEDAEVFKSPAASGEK

Structure (SMILES)	IC50 [1] [µM]	inhibition at 10 µM [1] [%]	IC50 [2] [µM]	rVR1 10 μM Stimulation [2] [%]	inhibition at 10 µM [2] [%]
CCCCCCCCCCCCCCCCOC(=O)NC(=O)NCC[N+](C)(C)C [compound 15, 4-(Trimethylamino-1-ethyl)allophanic acid hexadecyl ester iodide]	3.45	101	2.95	−1.01	109
CCCCCCCCCCCCCCCCOC(=O)NC(=O)NCC[N+]1(C)CCCC1 [compound 2, 4-(Pyrrolidinium-1-ethyl)allophanic acid hexadecyl ester iodide]	0.92	88.9	1.23	−0.02	87.1
CCCCCCCCCCCCCCCCOC[C@@H]1CC[C@H](COC(=O)NC(=O)NCC[N+](C)(C)C)O1 (relative stereo) [compound 13, 4-(Trimethylamino-1-ethyl)allophanic acid (cis-5-hexadecyloxymethyltetrahydrofuran-2-yl)methyl ester iodide]	1.1	80.8	1.3	0.36	92.1
CCCCCCCCCCCCCCCCOCC(COC(=O)NC(=O)NCC[N+](C)(C)C)OC (centres unmarked) [compound 14, 4-(Trimethylamino-1-ethyl)allophanic acid 3-hexadecyloxy-2-methoxypropan-1-yl ester iodide]	2.4	93.1	1.15	0.09	95.5
CCCCCCCCCCCCOC(=O)NC(=O)NCC[N+](C)(C)C [compound 1, 4-(Trimethylamino-1-ethyl)allophanic acid dodecyl ester iodide]	2.43	95.4	2.1	0.55	103
CCCCCCCCCCCCCCCCOC(=O)NC(=O)NCCC[N+](C)(C)C [compound 3, 4-(Trimethylamino-1-propyl)allophanic acid hexadecyl ester iodide]	4.27	56.9	1.27	−0.73	94.4
CCCCCCCCCCCCCCCCOCC1(COC(=O)NC(=O)NCC[N+](C)(C)C)CCCO1 (centres unmarked) [compound 16, 4-(Trimethylamino-1-ethyl)allophanic acid (2-hexadecyloxymethyltetrahydrofuran-2-yl)methyl ester iodide]	1.7	68.6	2.9	0.58	99.3
